Assay results taken from ChEMBL document CHEMBL4308841, “Synthesis, in vitro antiproliferative activity, and kinase inhibitory effects of pyrazole-containing diarylureas and diarylamides” (Eur J Med Chem, 2018).

Tests used:
NCI-H23 = experiment: Growth inhibition of human NCI-H23 cells assessed as cell growth at 1 uM incubated for 48 hrs by sulforhodamine B assay relative to control; type: functional; conditions: NCI-H23, 48 h, read-out: Activity
SK-OV-3 = experiment: Growth inhibition of human SKOV3 cells incubated for 48 hrs by sulforhodamine B assay; type: functional, cell-based; conditions: SK-OV-3, 48 h
SK-MEL-5 = experiment: Growth inhibition of human SK-MEL-5 cells assessed as cell growth at 0.1 uM incubated for 48 hrs by sulforhodamine B assay relative to control; type: functional; conditions: SK-MEL-5, 48 h, read-out: Activity
SW-620 [1] = experiment: Growth inhibition of human SW620 cells incubated for 48 hrs by sulforhodamine B assay; type: functional, cell-based; conditions: SW-620, 48 h
DU-145 [2] = experiment: Growth inhibition of human DU145 cells assessed as cell growth at 0.1 uM incubated for 48 hrs by sulforhodamine B assay relative to control; type: functional; conditions: DU-145, 48 h, read-out: Activity
OVCAR-5 [3] = experiment: Growth inhibition of human OVCAR5 cells assessed as cell growth at 1 uM incubated for 48 hrs by sulforhodamine B assay relative to control; type: functional; conditions: OVCAR-5, 48 h, read-out: Activity
SW-620 [4] = experiment: Growth inhibition of human SW620 cells assessed as cell growth at 0.1 uM incubated for 48 hrs by sulforhodamine B assay relative to control; type: functional; conditions: SW-620, 48 h, read-out: Activity
HOP-62 [5] = experiment: Growth inhibition of human HOP62 cells assessed as cell growth at 100 uM incubated for 48 hrs by sulforhodamine B assay relative to control; type: functional; conditions: HOP-62, 48 h, read-out: Activity
M14 = experiment: Growth inhibition of human M14 cells assessed as cell growth at 1 uM incubated for 48 hrs by sulforhodamine B assay relative to control; type: functional; conditions: M14, 48 h, read-out: Activity
Malme-3M = experiment: Growth inhibition of human MALME-3M cells assessed as cell growth at 1 uM incubated for 48 hrs by sulforhodamine B assay relative to control; type: functional; conditions: read-out: Activity
CCRF-CEM [6] = experiment: Growth inhibition of human CCRF-CEM cells assessed as cell growth at 0.1 uM incubated for 48 hrs by sulforhodamine B assay relative to control; type: functional; conditions: read-out: Activity
NCI-H522 [7] = experiment: Growth inhibition of human NCI-H522 cells assessed as cell growth at 100 uM incubated for 48 hrs by sulforhodamine B assay relative to control; type: functional; conditions: NCI-H522, 48 h, read-out: Activity
OVCAR-8 = experiment: Growth inhibition of human OVCAR8 cells assessed as cell growth at 1 uM incubated for 48 hrs by sulforhodamine B assay relative to control; type: functional; conditions: OVCAR-8, 48 h, read-out: Activity
HCC 2998 = experiment: Growth inhibition of human HCC2998 cells assessed as cell growth at 0.01 uM incubated for 48 hrs by sulforhodamine B assay relative to control; type: functional; conditions: HCC 2998, 48 h, read-out: Activity
HT-29 = experiment: Growth inhibition of human HT-29 cells assessed as cell growth at 0.01 uM incubated for 48 hrs by sulforhodamine B assay relative to control; type: functional; conditions: HT-29, 48 h, read-out: Activity
OVCAR-4 = experiment: Growth inhibition of human OVCAR4 cells incubated for 48 hrs by sulforhodamine B assay; type: functional, cell-based; conditions: OVCAR-4, 48 h
RXF 393 = experiment: Growth inhibition of human RXF393 cells assessed as cell growth at 100 uM incubated for 48 hrs by sulforhodamine B assay relative to control; type: functional; conditions: RXF 393, 48 h, read-out: Activity
HOP-62 [8] = experiment: Growth inhibition of human HOP62 cells assessed as cell growth at 0.1 uM incubated for 48 hrs by sulforhodamine B assay relative to control; type: functional; conditions: HOP-62, 48 h, read-out: Activity
SK-MEL-2 = experiment: Growth inhibition of human SK-MEL-2 cells assessed as cell growth at 100 uM incubated for 48 hrs by sulforhodamine B assay relative to control; type: functional; conditions: SK-MEL-2, 48 h, read-out: Activity
KM12 = experiment: Growth inhibition of human KM12 cells assessed as cell growth at 0.01 uM incubated for 48 hrs by sulforhodamine B assay relative to control; type: functional; conditions: KM12, 48 h, read-out: Activity
NCI-H522 [9] = experiment: Growth inhibition of human NCI-H522 cells assessed as cell growth at 0.01 uM incubated for 48 hrs by sulforhodamine B assay relative to control; type: functional; conditions: NCI-H522, 48 h, read-out: Activity
OVCAR-5 [10] = experiment: Growth inhibition of human OVCAR5 cells assessed as cell growth at 0.1 uM incubated for 48 hrs by sulforhodamine B assay relative to control; type: functional; conditions: OVCAR-5, 48 h, read-out: Activity
SW-620 [11] = experiment: Growth inhibition of human SW620 cells assessed as cell growth at 1 uM incubated for 48 hrs by sulforhodamine B assay relative to control; type: functional; conditions: SW-620, 48 h, read-out: Activity
LOX IMVI = experiment: Growth inhibition of human LOXIMVI cells assessed as cell growth at 100 uM incubated for 48 hrs by sulforhodamine B assay relative to control; type: functional; conditions: read-out: Activity
HCT-15 = experiment: Growth inhibition of human HCT15 cells assessed as cell growth at 0.01 uM incubated for 48 hrs by sulforhodamine B assay relative to control; type: functional; conditions: HCT-15, 48 h, read-out: Activity
SF-268 = experiment: Growth inhibition of human SF268 cells assessed as cell growth at 0.1 uM incubated for 48 hrs by sulforhodamine B assay relative to control; type: functional; conditions: SF-268, 48 h, read-out: Activity
TK-10 = experiment: Growth inhibition of human TK10 cells assessed as cell growth at 10 uM incubated for 48 hrs by sulforhodamine B assay relative to control; type: functional; conditions: TK-10, 48 h, read-out: Activity
CCRF-CEM [12] = experiment: Growth inhibition of human CCRF-CEM cells assessed as cell growth at 1 uM incubated for 48 hrs by sulforhodamine B assay relative to control; type: functional; conditions: read-out: Activity
SF-539 = experiment: Growth inhibition of human SF539 cells assessed as cell growth at 1 uM incubated for 48 hrs by sulforhodamine B assay relative to control; type: functional; conditions: SF-539, 48 h, read-out: Activity
NCI/ADR-RES = experiment: Growth inhibition of human NCI/ADR-RES cells assessed as cell growth at 0.01 uM incubated for 48 hrs by sulforhodamine B assay relative to control; type: functional; conditions: read-out: Activity
DU-145 [13] = experiment: Growth inhibition of human DU145 cells assessed as cell growth at 100 uM incubated for 48 hrs by sulforhodamine B assay relative to control; type: functional; conditions: DU-145, 48 h, read-out: Activity
HL-60(TB) = experiment: Growth inhibition of human HL-60(TB) cells assessed as cell growth at 0.1 uM incubated for 48 hrs by sulforhodamine B assay relative to control; type: functional; conditions: HL-60, 48 h, read-out: Activity
[14] = read-out: LC50 (the source's name)
[15] = read-out: pLC50 (the source's name) (converted)

O=C(Nc1cccc(-n2cc(-c3ccncc3)c(-c3cc(O)cc(Cl)c3)n2)c1)c1cc(C(F)(F)F)cc(C(F)(F)F)c1 gave a growth at 1 µM (NCI-H23) of 98%, a GI50 (SK-OV-3; read-out: GI50) of 1.08 µM and a CC50 (SK-OV-3; [14]) of over 100 µM. The TGI (SK-OV-3; read-out: TGI) was over 100 µM, the GI50 (SK-OV-3; read-out: pGI50 (converted)) was 10.7 µM and the CC50 (SK-OV-3; [15]) was over 100 µM. It also gave a TGI (SK-OV-3; read-out: pTGI (converted)) of over 100 µM, a growth at 0.1 µM (SK-MEL-5) of 95% and a GI50 (SW-620 [1]; read-out: GI50) of 4.48 µM. For the same compound, the LC50 (SW-620 [1]; read-out: LC50) was over 100 µM, the TGI (SW-620 [1]; read-out: TGI) was over 100 µM and the GI50 (SW-620 [1]; read-out: pGI50 (converted)) was 4.47 µM. The LC50 (SW-620 [1]; read-out: pLC50 (converted)) was over 100 µM, the TGI (SW-620 [1]; read-out: pTGI (converted)) was over 100 µM and the growth at 0.1 µM (DU-145 [2]) was 99%. It also gave a growth at 1 µM (OVCAR-5 [3]) of 99%, a growth at 0.1 µM (SW-620 [4]) of 98% and a growth at 100 µM (HOP-62 [5]) of 14%. The growth at 1 µM (M14) was 85%, the growth at 1 µM (Malme-3M) was 59% and the growth at 0.1 µM (CCRF-CEM [6]) was 97%. The growth at 100 µM (NCI-H522 [7]) was -18%, the growth at 1 µM (OVCAR-8) was 91% and the growth at 0.01 µM (HCC 2998) was 94%. The growth at 0.01 µM (HT-29) was 96%, the GI50 (OVCAR-4; read-out: GI50) was 8.53 µM and the CC50 (OVCAR-4; [14]) was over 100 µM. It also gave a TGI (OVCAR-4; read-out: TGI) of over 100 µM, a GI50 (OVCAR-4; read-out: pGI50 (converted)) of 8.51 µM and a CC50 (OVCAR-4; [15]) of over 100 µM. The TGI (OVCAR-4; read-out: pTGI (converted)) was over 100 µM, the growth at 100 µM (RXF 393) was -50% and the growth at 0.1 µM (HOP-62 [8]) was 100%. It also gave a growth at 100 µM (SK-MEL-2) of -43%, a growth at 0.01 µM (KM12) of 96% and a growth at 0.01 µM (NCI-H522 [9]) of 93%. For the same compound, the growth at 0.1 µM (OVCAR-5 [10]) was 54%, the growth at 1 µM (SW-620 [11]) was 100% and the growth at 100 µM (LOX IMVI) was -41%. It also gave a growth at 0.01 µM (HCT-15) of 96%, a growth at 0.1 µM (SF-268) of 95% and a growth at 10 µM (TK-10) of 73%. For the same compound, the growth at 1 µM (CCRF-CEM [12]) was 56%, the growth at 1 µM (SF-539) was 91% and the growth at 0.01 µM (NCI/ADR-RES) was 101%. The growth at 100 µM (DU-145 [13]) was 23%.
COc1cc(Cl)cc(-c2nn(-c3cccc(NC(=O)Nc4cc(C(F)(F)F)cc(C(F)(F)F)c4)c3)cc2-c2ccncc2)c1 showed a growth at 1 µM (NCI-H23) of 8%, an IC50 (SK-OV-3) of 0.77 µM and a GI50 (SK-OV-3; read-out: GI50) of 0.77 µM. For the same compound, the CC50 (SK-OV-3; [14]) was 0.0412 µM, the TGI (SK-OV-3; read-out: TGI) was 5.75 µM and the GI50 (SK-OV-3; read-out: pGI50 (converted)) was 0.776 µM. The CC50 (SK-OV-3; [15]) was 41.7 µM, the TGI (SK-OV-3; read-out: pTGI (converted)) was 5.75 µM and the growth at 0.1 µM (HL-60(TB)) was 88%. It also gave a growth at 0.1 µM (SK-MEL-5) of 97%, an IC50 (SW-620 [1]) of 0.39 µM and a GI50 (SW-620 [1]; read-out: GI50) of 0.3 µM. It also gave an LC50 (SW-620 [1]; read-out: LC50) of 0.015 µM, a TGI (SW-620 [1]; read-out: TGI) of 2 µM and a GI50 (SW-620 [1]; read-out: pGI50 (converted)) of 0.389 µM. For the same compound, the LC50 (SW-620 [1]; read-out: pLC50 (converted)) was 15.1 µM, the TGI (SW-620 [1]; read-out: pTGI (converted)) was 2 µM and the growth at 0.1 µM (DU-145 [2]) was 95%. For the same compound, the growth at 1 µM (OVCAR-5 [3]) was 59%, the growth at 0.1 µM (SW-620 [4]) was 94% and the growth at 100 µM (HOP-62 [5]) was -60%. For the same compound, the growth at 1 µM (M14) was 25%, the growth at 1 µM (Malme-3M) was 36% and the growth at 0.1 µM (CCRF-CEM [6]) was 84%. It also gave a growth at 100 µM (NCI-H522 [7]) of -69%, a growth at 1 µM (OVCAR-8) of 12% and a growth at 0.01 µM (HCC 2998) of 95%. The growth at 0.01 µM (HT-29) was 102%, the IC50 (OVCAR-4) was 0.5 µM and the GI50 (OVCAR-4; read-out: GI50) was 0.501 µM. For the same compound, the CC50 (OVCAR-4; [14]) was over 100 µM, the TGI (OVCAR-4; read-out: TGI) was 21.4 µM and the GI50 (OVCAR-4; read-out: pGI50 (converted)) was 0.501 µM. It also gave a CC50 (OVCAR-4; [15]) of over 100 µM, a TGI (OVCAR-4; read-out: pTGI (converted)) of 26.9 µM and a growth at 100 µM (RXF 393) of -92%. It also gave a growth at 0.1 µM (HOP-62 [8]) of 93%, a growth at 100 µM (SK-MEL-2) of -83% and a growth at 0.01 µM (KM12) of 97%. It also gave a growth at 0.01 µM (NCI-H522 [9]) of 93%, a growth at 0.1 µM (OVCAR-5 [10]) of 95% and a growth at 1 µM (SW-620 [11]) of 19%. It also gave a growth at 0.01 µM (HCT-15) of 93%, a growth at 0.1 µM (SF-268) of 99% and a growth at 10 µM (TK-10) of 30.3%. It also gave a growth at 1 µM (CCRF-CEM [12]) of 5%, a growth at 1 µM (SF-539) of 59% and a growth at 0.01 µM (NCI/ADR-RES) of 99%. For the same compound, the growth at 100 µM (DU-145 [13]) was -58%.
